Source: the NIST ThermoML archive (doi:10.1016/j.jct.2016.10.033)

Key:
[1] = 103 kPa, Liquid, Vibrating tube method
[2] = refractive index (Na D-line) (dimensionless); details: 103 kPa, Liquid, Standard Abbe refractometry
[3] = xn = mol fraction of the nth substance listed; details: 103 kPa, Liquid, Vibrating tube method, x1 = 1
[4] = refractive index (Na D-line) (dimensionless); xn = mol fraction of the nth substance listed; details: 103 kPa, Liquid, Standard Abbe refractometry, x1 = 1

CO[Si](C)(C)OC [dimethoxydimethylsilane]
Details | mass density, 298.15 K [kg/m3] | mass density, 303.15 K [kg/m3] | mass density, 308.15 K [kg/m3] | mass density, 313.15 K [kg/m3] | mass density, 318.15 K [kg/m3] | refractive index, 298.15 K | refractive index, 303.15 K | refractive index, 308.15 K | refractive index, 313.15 K | refractive index, 318.15 K
[1] | 857.9 | 852.05 | 846.16 | 840.22 | 834.24 | – | – | – | – | –
[2] | – | – | – | – | – | 1.36816 | 1.36559 | 1.36297 | 1.36035 | 1.35771

CO[Si](C)(OC)c1ccccc1 [dimethoxymethylphenylsilane]
Details | mass density, 298.15 K [kg/m3] | mass density, 303.15 K [kg/m3] | mass density, 308.15 K [kg/m3] | mass density, 313.15 K [kg/m3] | mass density, 318.15 K [kg/m3] | refractive index, 298.15 K | refractive index, 303.15 K | refractive index, 308.15 K | refractive index, 313.15 K | refractive index, 318.15 K
[1] | 1000.78 | 996.13 | 991.48 | 986.81 | 982.15 | – | – | – | – | –
[2] | – | – | – | – | – | 1.47763 | 1.47528 | 1.47293 | 1.47061 | 1.46825

CO[Si](C)(OC)c1ccccc1 [dimethoxymethylphenylsilane] + C=C[Si](C)(OCC)OCC
Details | mass density, 298.15 K [kg/m3] | mass density, 303.15 K [kg/m3] | mass density, 308.15 K [kg/m3] | mass density, 313.15 K [kg/m3] | mass density, 318.15 K [kg/m3] | refractive index, 298.15 K | refractive index, 303.15 K | refractive index, 308.15 K | refractive index, 313.15 K | refractive index, 318.15 K
[3] | 1000.78 | 996.13 | 991.48 | 986.81 | 982.15 | – | – | – | – | –
[4] | – | – | – | – | – | 1.47763 | 1.47528 | 1.47293 | 1.47061 | 1.46825

CO[Si](C)(OC)c1ccccc1 [dimethoxymethylphenylsilane] + C=C[Si](OC)(OC)OC
Details | mass density, 298.15 K [kg/m3] | mass density, 303.15 K [kg/m3] | mass density, 308.15 K [kg/m3] | mass density, 313.15 K [kg/m3] | mass density, 318.15 K [kg/m3] | refractive index, 298.15 K | refractive index, 303.15 K | refractive index, 308.15 K | refractive index, 313.15 K | refractive index, 318.15 K
[3] | 1000.78 | 996.13 | 991.48 | 986.81 | 982.15 | – | – | – | – | –
[4] | – | – | – | – | – | 1.47763 | 1.47528 | 1.47293 | 1.47061 | 1.46825

CO[Si](C)(OC)c1ccccc1 [dimethoxymethylphenylsilane] + CCO[Si](C)(C)OCC
Details | mass density, 298.15 K [kg/m3] | mass density, 303.15 K [kg/m3] | mass density, 308.15 K [kg/m3] | mass density, 313.15 K [kg/m3] | mass density, 318.15 K [kg/m3] | refractive index, 298.15 K | refractive index, 303.15 K | refractive index, 308.15 K | refractive index, 313.15 K | refractive index, 318.15 K
[3] | 1000.78 | 996.13 | 991.48 | 986.81 | 982.15 | – | – | – | – | –
[4] | – | – | – | – | – | 1.47763 | 1.47528 | 1.47293 | 1.47061 | 1.46825

CO[Si](C)(OC)c1ccccc1 [dimethoxymethylphenylsilane] + CO[Si](C)(C)OC
Details | mass density, 298.15 K [kg/m3] | mass density, 303.15 K [kg/m3] | mass density, 308.15 K [kg/m3] | mass density, 313.15 K [kg/m3] | mass density, 318.15 K [kg/m3] | refractive index, 298.15 K | refractive index, 303.15 K | refractive index, 308.15 K | refractive index, 313.15 K | refractive index, 318.15 K
[3] | 1000.78 | 996.13 | 991.48 | 986.81 | 982.15 | – | – | – | – | –
[4] | – | – | – | – | – | 1.47763 | 1.47528 | 1.47293 | 1.47061 | 1.46825

CCO[Si](C)(C)OCC [dimethyldiethoxysilane]
Details | mass density, [1] [kg/m3] | refractive index, [2]
293.15 K | 840.11 | 1.38452
298.15 K | 835.43 | 1.38045
303.15 K | 830.05 | 1.37791
308.15 K | 824.66 | 1.37532
313.15 K | 819.23 | 1.37275
318.15 K | 813.79 | 1.37015

C=C[Si](C)(OCC)OCC [methylvinyldiethoxysilane]
Details | mass density, [1] [kg/m3] | refractive index, [2]
293.15 K | 862.21 | 1.40033
298.15 K | 856.25 | 1.39751
303.15 K | 851.09 | 1.39501
308.15 K | 845.89 | 1.39249
313.15 K | 840.71 | 1.38997
318.15 K | 835.44 | 1.38742

C=C[Si](OC)(OC)OC [trimethoxy(vinyl)silane]
Details | mass density, 298.15 K [kg/m3] | mass density, 303.15 K [kg/m3] | mass density, 308.15 K [kg/m3] | mass density, 313.15 K [kg/m3] | mass density, 318.15 K [kg/m3] | refractive index, 298.15 K | refractive index, 303.15 K | refractive index, 308.15 K | refractive index, 313.15 K | refractive index, 318.15 K
[1] | 965.69 | 960.02 | 954.26 | 948.47 | 942.63 | – | – | – | – | –
[2] | – | – | – | – | – | 1.39022 | 1.38775 | 1.38535 | 1.3829 | 1.38046
